Assay: Antagonist activity at LPA1 in human lung fibroblasts assessed as inhibition of LPA-induced contraction after 18 hrs by 3D collagen gel contraction assay

SMILES | IC50 [nM]
C[C@@H](OC(=O)Nc1c(-c2ccc(C3CCC(CC(=O)O)CC3)cc2)nnn1C)c1ccccc1 (stereo partly drawn) | 220
C[C@@H](OC(=O)Nc1c(-c2ccc(-c3ccc(C4(C(=O)O)CC4)cc3)cc2)nnn1C)c1cccc(C(F)(F)F)c1 | 340
C[C@@H](OC(=O)Nc1c(-c2ccc(-c3ccc(C4(C(=O)O)CC4)cc3)cc2F)nnn1C)c1ccccc1 | 20

More lines, now with the values ahead:

IC50 [nM] | SMILES
20 | C[C@@H](OC(=O)Nc1c(-c2ccc(-c3ccc(C4(C(=O)O)CC4)cc3)cc2)nnn1C)c1ccccc1
390 | C[C@@H](OC(=O)Nc1c(-c2ccc(-c3ccc(CC(=O)O)cc3)cc2)nnn1C)c1ccccc1
100 | Cc1nnn(-c2ccc(-c3ccc(C4(C(=O)O)CC4)cc3)cc2)c1NC(=O)O[C@H](C)c1ccccc1
150 | Cc1noc(-c2ccc(-c3ccc(CC(=O)O)cc3)cc2)c1NC(=O)O[C@H](C)c1ccccc1
160 | Cc1noc(-c2ccc(CSCCC(=O)O)cc2)c1NC(=O)OC(C)c1ccccc1Cl (stereo not drawn) [3-(4-(4-((1-(2-chlorophenyl)ethoxy)carbonylamino)-3-methylisoxazol-5-yl)benzylthio)propanoic acid]

Reference: BindingDB's records for doi:10.1021/jm301022v (F. Hoffmann-La Roche, 2012)
